# Measured values published in ChEMBL document CHEMBL1151793, “Synthesis, biological active molecular design, and molecular docking study of novel deazaflavin-cholestane hybrid compounds” (Bioorg Med Chem, 2008).
# Experiments:
# CCRF-HSB-2 = test: Antitumor activity against human CCRF-HSB2 cells by MTT assay; assay type: functional, cell-based
# KB = test: Antitumor activity against human KB cells by MTT assay; assay type: functional, cell-based
SMILES,IC50 (CCRF-HSB-2) [µg/mL],IC50 (KB) [µg/mL]
CCCCCCCC[C@H]1CC[C@H]2[C@@H]3CCC4=Cc5c(cc6c(=O)[nH]c(=O)nc-6n5-c5ccc(C)c(C)c5)C[C@]4(C)[C@H]3CC[C@]12C,4.7,7.8
CCCCCCCC[C@H]1CC[C@H]2[C@@H]3CCC4=Cc5c(cc6c(=O)n(-c7ccccc7)c(=O)nc-6n5-c5ccc(C)c(C)c5)C[C@]4(C)[C@H]3CC[C@]12C,7.7,9.1
CCCCCCCC[C@H]1CC[C@H]2[C@@H]3CCC4=Cc5c(cc6c(=O)[nH]c(=O)nc-6n5C)C[C@]4(C)[C@H]3CC[C@]12C,8.8,8.4
CCCCCCCC[C@H]1CC[C@H]2[C@@H]3CCC4=Cc5c(cc6c(=O)n(-c7ccccc7)c(=O)nc-6n5-c5ccc(OC)cc5)C[C@]4(C)[C@H]3CC[C@]12C,7.5,8.7
CCCCCCCC[C@H]1CC[C@H]2[C@@H]3CCC4=Cc5c(cc6c(=O)[nH]c(=O)nc-6n5-c5ccc(Cl)cc5)C[C@]4(C)[C@H]3CC[C@]12C,2.7,1.8
CCCCCCCC[C@H]1CC[C@H]2[C@@H]3CCC4=Cc5c(cc6c(=O)[nH]c(=O)nc-6n5-c5ccc(OC)cc5)C[C@]4(C)[C@H]3CC[C@]12C,2.1,1.7
CCCCCCCC[C@H]1CC[C@H]2[C@@H]3CCC4=Cc5c(cc6c(=O)n(C)c(=O)nc-6n5-c5ccc(OC)cc5)C[C@]4(C)[C@H]3CC[C@]12C,4.5,7.4
CCCCCCCC[C@H]1CC[C@H]2[C@@H]3CCC4=Cc5c(cc6c(=O)n(C)c(=O)nc-6n5CC)C[C@]4(C)[C@H]3CC[C@]12C,> 100,> 100
CCCCCCCC[C@H]1CC[C@H]2[C@@H]3CCC4=Cc5c(cc6c(=O)n(C)c(=O)nc-6n5-c5ccc(F)cc5)C[C@]4(C)[C@H]3CC[C@]12C,6.9,8.4
CCCCCCCC[C@H]1CC[C@H]2[C@@H]3CCC4=Cc5c(cc6c(=O)[nH]c(=O)nc-6n5-c5cccc(C)c5)C[C@]4(C)[C@H]3CC[C@]12C,2.7,4.4
CCCCCCCC[C@H]1CC[C@H]2[C@@H]3CCC4=Cc5c(cc6c(=O)n(C)c(=O)nc-6n5CCCC)C[C@]4(C)[C@H]3CC[C@]12C,10,7.5
CCCCCCCC[C@H]1CC[C@H]2[C@@H]3CCC4=Cc5c(cc6c(=O)n(C)c(=O)nc-6n5-c5cccc(C)c5)C[C@]4(C)[C@H]3CC[C@]12C,5.4,7.4
CCCCCCCC[C@H]1CC[C@H]2[C@@H]3CCC4=Cc5c(cc6c(=O)n(C)c(=O)nc-6n5-c5ccccc5)C[C@]4(C)[C@H]3CC[C@]12C,6.2,7.6
Nc1ccn([C@@H]2O[C@H](CO)[C@@H](O)[C@@H]2O)c(=O)n1 [CYTARABINE],–,0.73
CCCCCCCC[C@H]1CC[C@H]2[C@@H]3CCC4=Cc5c(cc6c(=O)n(C)c(=O)nc-6n5C)C[C@]4(C)[C@H]3CC[C@]12C,36.8,40.9
CCCCCCCC[C@H]1CC[C@H]2[C@@H]3CCC4=Cc5c(cc6c(=O)[nH]c(=O)nc-6n5-c5ccccc5)C[C@]4(C)[C@H]3CC[C@]12C,5.4,7.9
CCCCCCCC[C@H]1CC[C@H]2[C@@H]3CCC4=Cc5c(cc6c(=O)[nH]c(=O)nc-6n5CCCC)C[C@]4(C)[C@H]3CC[C@]12C,4.3,5.7
CCCCCCCC[C@H]1CC[C@H]2[C@@H]3CCC4=Cc5c(cc6c(=O)n(-c7ccccc7)c(=O)nc-6n5-c5cccc(C)c5)C[C@]4(C)[C@H]3CC[C@]12C,5.4,8
CCCCCCCC[C@H]1CC[C@H]2[C@@H]3CCC4=Cc5c(cc6c(=O)n(-c7ccccc7)c(=O)nc-6n5C)C[C@]4(C)[C@H]3CC[C@]12C,5.5,7.4
CCCCCCCC[C@H]1CC[C@H]2[C@@H]3CCC4=Cc5c(cc6c(=O)[nH]c(=O)nc-6n5-c5ccc(F)cc5)C[C@]4(C)[C@H]3CC[C@]12C,2.7,2.1
CCCCCCCC[C@H]1CC[C@H]2[C@@H]3CCC4=Cc5c(cc6c(=O)n(-c7ccccc7)c(=O)nc-6n5-c5ccc(F)cc5)C[C@]4(C)[C@H]3CC[C@]12C,5.5,8.4
CCCCCCCC[C@H]1CC[C@H]2[C@@H]3CCC4=Cc5c(cc6c(=O)n(-c7ccccc7)c(=O)nc-6n5-c5ccc(Cl)cc5)C[C@]4(C)[C@H]3CC[C@]12C,9,9.3
CCCCCCCC[C@H]1CC[C@H]2[C@@H]3CCC4=Cc5c(cc6c(=O)n(C)c(=O)nc-6n5-c5ccc(Br)cc5)C[C@]4(C)[C@H]3CC[C@]12C,14,14.2
CCCCCCCC[C@H]1CC[C@H]2[C@@H]3CCC4=Cc5c(cc6c(=O)[nH]c(=O)nc-6n5CC)C[C@]4(C)[C@H]3CC[C@]12C,37.9,40.3
CCCCCCCC[C@H]1CC[C@H]2[C@@H]3CCC4=Cc5c(cc6c(=O)n(C)c(=O)nc-6n5-c5ccc(Cl)cc5)C[C@]4(C)[C@H]3CC[C@]12C,7.6,9.2
CCCCCCCC[C@H]1CC[C@H]2[C@@H]3CCC4=Cc5c(cc6c(=O)n(-c7ccccc7)c(=O)nc-6n5-c5ccccc5)C[C@]4(C)[C@H]3CC[C@]12C,2.4,1.9
CCCCCCCC[C@H]1CC[C@H]2[C@@H]3CCC4=Cc5c(cc6c(=O)n(C)c(=O)nc-6n5-c5ccc(C)c(C)c5)C[C@]4(C)[C@H]3CC[C@]12C,5.6,8.3
